According to patent publication US9884849B2, “Fluorinated benzofuranyl-pyrimidine derivatives containing a sulfoximine group” (Bayer Pharma Aktiengesellschaft, priority 2014, dated 2018):
pIC50: −log10 of the molar value. Read-outs that look alike come from different tables or passages of the source.

How the values were obtained:
CDK9/CycT1 = biological target: T1, CDK9/CycT1 (Homo sapiens, UniProt P50750); experiment: CDK9/CycT1 high ATP kinase assay (Method 1b, TR-FRET); type: biochemical; settings: 2 mM ATP; for Selectivity high ATP CDK9 over high ATP CDK2: IC50 (high ATP CDK2)/IC50 (high ATP CDK9): Methods 1b. and 2b.
T1 construct: Recombinant full-length His-tagged human CDK9 and CycT1; His; purchased Invitrogen PV4131; host or cells: insect cells
Procedure: 1b. CDK9/CycT1 High ATP Kinase Assay
CDK9/CycT1-Inhibitory Activity of Compounds of the Present Invention at a High ATP Concentration after Preincubation of Enzyme and Test Compounds was Quantified Employing the CDK9/CycT1 TR-FRET Assay as Described in the Following Paragraphs.
Recombinant full-length His-tagged human CDK9 and CycT1, expressed in insect cells and purified by Ni-NTA affinity chromatography, were purchase from Invitrogen (Cat. No PV4131). As substrate for the kinase reaction biotinylated peptide biotin-Ttds-YISPLKSPYKISEG (C-terminus in amid form) was used which can be purchased e.g. form the company JERINI peptide technologies (Berlin, Germany). For the assay 50 nl of a 100 fold concentrated solution of the test compound in DMSO was pipetted into a black low volume 384 well microtiter plate (Greiner Bio-One, Frickenhausen, Germany), 2 μl of a solution of CDK9/CycT1 in aqueous assay buffer [50 mM Tris/HCl pH 8.0, 10 mM MgCl2, 1.0 mM dithiothreitol, 0.1 mM sodium ortho-vanadate, 0.01% (v/v) Nonidet-P40 (Sigma)] were added and the mixture was incubated for 15 min at 22° C. to allow pre-binding of the test compounds to the enzyme before the start of the kinase reaction. Then the kinase reaction was started by the addition of 3 μl of a solution of adenosine-tri-phosphate (ATP, 3.3 mM=>final conc. in the 5 μl assay volume is 2 mM) and substrate (1.67 μM=>final conc. in the 5 μl assay volume is 1 μM) in assay buffer and the resulting mixture was incubated for a reaction time of 25 min at 22° C. The concentration of CDK9/CycT1 was adjusted depending of the activity of the enzyme lot and was chosen appropriate to have the assay in the linear range, typical concentrations were in the range of 0.5 μg/mL. The reaction was stopped by the addition of 5 μl of a solution of TR-FRET detection reagents (0.2 μM streptavidine-XL665 [Cisbio Bioassays, Codolet, France] and 1 nM anti-RB(pSer807/pSer811)-antibody from BD Pharmingen [#558389] and 1.2 nM LANCE EU-W1024 labeled anti-mouse IgG antibody [Perkin-Elmer, product no. AD0077]) in an aqueous EDTA-solution (100 mM EDTA, 0.2% (w/v) bovine serum albumin in 100 mM HEPES/NaOH pH 7.0).
The resulting mixture was incubated 1 h at 22° C. to allow the formation of complex between the phosphorylated biotinylated peptide and the detection reagents. Subsequently the amount of phosphorylated substrate was evaluated by measurement of the resonance energy transfer from the Eu-chelate to the streptavidine-XL. Therefore, the fluorescence emissions at 620 nm and 665 nm after excitation at 350 nm was measured in a HTRF reader, e.g. a Rubystar (BMG Labtechnologies, Offenburg, Germany) or a Viewlux (Perkin-Elmer). The ratio of the emissions at 665 nm and at […] was taken as the measure for the amount of phosphorylated substrate. The data were normalised (enzyme reaction without inhibitor=0% inhibition, all other assay components but no enzyme=100% inhibition).

HeLa-MaTu-ADR cells = experiment: Proliferation assay HeLa-MaTu-ADR (Method 3); type: cell-based, human; settings: 4 days, crystal violet, read-out: Inhibition of HeLa-MaTu-ADR cell proliferation IC50
Procedure: (§1) Cultivated tumour cells (HeLa, human cervical tumour cells, ATCC CCL-2; NCI-H460, human non-small cell lung carcinoma cells, ATCC HTB-177; A2780, human ovarian carcinoma cells, ECACC #93112519; DU 145, hormone-independent human prostate carcinoma cells, ATCC HTB-81; HeLa-MaTu-ADR, multidrug-resistant human cervical carcinoma cells, EPO-GmbH Berlin; Caco-2, human colorectal carcinoma cells, ATCC HTB-37; B16F10, mouse melanoma cells, ATCC CRL-6475) were plated at a density of 5,000 cells/well (DU145, HeLa-MaTu-ADR), 3,000 cells/well (NCI-H460, HeLa), 2,500 cells/well (A2780), 1,500 cells/well (Caco-2), or 1,000 cells/well (B16F10) in a 96-well multititer plate in 200 μL of their respective growth medium supplemented 10% fetal calf serum. After 24 hours, the cells of one plate (zero-point plate) were stained with crystal violet (see below), while the medium of the other plates was replaced by fresh culture medium (200 μl), to which the test substances were added in various concentrations (0 μM, as well as in the range of 0.001-10 μM; the final concentration of the solvent dimethyl sulfoxide was 0.5%). The cells were incubated for 4 days in the presence of test substances. Cell proliferation was determined by staining the cells with crystal violet: the cells were fixed by adding 20 μl/measuring point of an 11% glutaric aldehyde solution for 15 minutes at room temperature. After three washing cycles of the fixed cells with water, the plates were dried at room temperature. The cells were stained by adding 100 μl/measuring point of a 0.1% crystal violet solution (pH 3.0). After three washing cycles of the stained cells with water, the plates were dried at room temperature. The dye was dissolved by adding 100 μl/measuring point of a 10% acetic acid solution. The extinction was determined by photometry at a wavelength of 595 nm. The change of cell number, in percent, was calculated by normalization of the measured values to the extinction values of the zero-point plate (=0%) and the extinction of the untreated (0 μm) cells (=100%). The IC50 values (inhibitory concentration at 50% of maximal effect) were determined by means of a 4 parameter fit.

NCI-H460 cells = experiment: Proliferation assay NCI-H460 (Method 3); type: cell-based, human; settings: NCI-H460, 4 days, crystal violet, read-out: Inhibition of NCI-H460 cell proliferation IC50
Procedure: as §1

Caco-2 cells = experiment: Proliferation assay Caco-2 (Method 3); type: cell-based, human; settings: Caco-2, 4 days, crystal violet, read-out: Inhibition of Caco-2 cell proliferation IC50
Procedure: as §1

B16F10 cells = experiment: Proliferation assay B16F10 (Method 3); type: cell-based, mouse; settings: 4 days, crystal violet, read-out: Inhibition of Bc6F10 cell proliferation IC50
Procedure: as §1

A2780 cells = experiment: Proliferation assay A2780 (Method 3); type: cell-based, human; settings: A2780, 4 days, crystal violet, read-out: Inhibition of A2780 cell proliferation IC50
Procedure: as §1

T1 sequence (P50750 whole entry): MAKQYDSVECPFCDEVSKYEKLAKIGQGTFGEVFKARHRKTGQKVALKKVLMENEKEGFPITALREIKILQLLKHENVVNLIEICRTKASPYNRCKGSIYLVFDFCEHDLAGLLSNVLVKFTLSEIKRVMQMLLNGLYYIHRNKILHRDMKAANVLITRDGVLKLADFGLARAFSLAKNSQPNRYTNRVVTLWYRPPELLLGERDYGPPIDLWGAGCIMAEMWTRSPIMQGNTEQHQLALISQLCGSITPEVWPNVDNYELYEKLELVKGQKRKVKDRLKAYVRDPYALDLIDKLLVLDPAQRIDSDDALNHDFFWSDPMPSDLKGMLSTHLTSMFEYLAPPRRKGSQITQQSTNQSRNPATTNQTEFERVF
T1 sequence (O60563 whole entry partner): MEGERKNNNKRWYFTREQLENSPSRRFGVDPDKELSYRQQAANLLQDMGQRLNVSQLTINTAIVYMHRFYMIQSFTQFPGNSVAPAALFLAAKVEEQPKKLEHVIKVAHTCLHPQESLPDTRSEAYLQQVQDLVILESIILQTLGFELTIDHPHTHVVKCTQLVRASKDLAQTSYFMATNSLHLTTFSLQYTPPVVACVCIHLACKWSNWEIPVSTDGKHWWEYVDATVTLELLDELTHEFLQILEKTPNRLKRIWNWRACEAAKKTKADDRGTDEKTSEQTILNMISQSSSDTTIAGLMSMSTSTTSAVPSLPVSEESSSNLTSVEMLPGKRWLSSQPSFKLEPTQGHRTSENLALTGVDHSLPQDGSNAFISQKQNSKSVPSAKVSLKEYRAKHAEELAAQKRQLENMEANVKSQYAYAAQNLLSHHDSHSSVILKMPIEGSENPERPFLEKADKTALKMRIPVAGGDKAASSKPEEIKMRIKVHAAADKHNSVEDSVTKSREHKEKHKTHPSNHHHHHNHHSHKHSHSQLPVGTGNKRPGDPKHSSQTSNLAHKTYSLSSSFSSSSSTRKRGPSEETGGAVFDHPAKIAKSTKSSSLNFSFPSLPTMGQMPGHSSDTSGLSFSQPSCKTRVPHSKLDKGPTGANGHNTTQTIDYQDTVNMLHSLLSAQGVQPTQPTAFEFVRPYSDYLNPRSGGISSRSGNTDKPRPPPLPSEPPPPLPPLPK

| Compound | pIC50 (CDK9/CycT1) | Selectivity high ATP CDK9 over high ATP CDK2: IC50 (high ATP CDK2)/IC50 (high ATP CDK9) (CDK9/CycT1) | pIC50 (HeLa-MaTu-ADR cells; Homo sapiens, 96 h) | pIC50 (NCI-H460 cells; Homo sapiens, NCI-H460, 96 h) | pIC50 (Caco-2 cells) | pIC50 (B16F10 cells; Mus musculus, B16-F10, 96 h) | pIC50 (A2780 cells) | pIC50 (HeLa-MaTu-ADR cells) | pIC50 (NCI-H460 cells) | pIC50 (B16F10 cells) | pIC50 (Caco-2 cells; Homo sapiens, Caco-2, 96 h) | pIC50 (A2780 cells; Homo sapiens, A2780, 96 h) |
| --- | --- | --- | --- | --- | --- | --- | --- | --- | --- | --- | --- | --- |
| CS(=N)(=O)Cc1cccc(Nc2ncc(F)c(-c3ccc(F)c4ccoc34)n2)c1 (single isomer, unassigned) [Example 5, 5-Fluoro-4-(4-fluoro-1-benzofuran-7-yl)-N-{3-[(S-methylsulfonimidoyl)-methyl]-phenyl}-pyrimidin-2-amine] | 8.25 | 143 | 6.72 | 6.46 | 6.64 | 6.59 | 7.03 | – | – | – | – | – |
| CS(=O)(Cc1cc(F)cc(Nc2ncc(F)c(-c3ccc(F)c4ccoc34)n2)c1)=NC#N (single isomer, unassigned) [Example 8, [(3-Fluoro-5-{[5-fluoro-4-(4-fluoro-1-benzofuran-7-yl)pyrimidin-2-yl]amino}benzyl)(methyl)-oxido-λ^6-sulfanylidene]cyanamide] | 9.00 | 812 | 7.46 | 6.92 | – | 7.25 | – | – | – | – | 7.37 | 7.43 |
| CS(=N)(=O)Cc1cc(F)cc(Nc2ncc(F)c(-c3ccc(F)c4ccoc34)n2)c1 (single isomer, unassigned) [Example 11, 5-Fluoro-4-(4-fluoro-1-benzofuran-7-yl)-N-{3-fluoro-5-[(S-methylsulfonimidoyl)-methyl]-phenyl}-pyrimidin-2-amine] | 8.43 | 247 | – | 7.08 | – | – | – | 6.70 | – | 7.35 | 7.33 | 7.49 |
| CS(=N)(=O)Cc1cc(F)cc(Nc2ncc(F)c(-c3ccc(F)c4ccoc34)n2)c1 (single isomer, unassigned) [Example 12, 5-Fluoro-4-(4-fluoro-1-benzofuran-7-yl)-N-{3-fluoro-5-[(S-methylsulfonimidoyl)-methyl]-phenyl}-pyrimidin-2-amine] | 9.00 | 1263 | – | – | 7.24 | – | 7.46 | 7.06 | 7.23 | 7.03 | – | – |
| Cc1cc(CS(C)(=O)=NC#N)cc(Nc2ncc(F)c(-c3ccc(F)c4ccoc34)n2)c1 (single isomer, unassigned) [Example 14, [(3-{[5-Fluoro-4-(4-fluoro-1-benzofuran-7-yl)pyrimidin-2-yl]amino}-5-methylbenzyl)-(methyl)oxido-λ^6-sulfanylidene]cyanamide] | 8.66 | 385 | 7.24 | 6.95 | – | 7.16 | – | – | – | – | 7.21 | 7.35 |
| Cc1cc(CS(C)(=O)=NC#N)cc(Nc2ncc(F)c(-c3ccc(F)c4ccoc34)n2)c1 (single isomer, unassigned) [Example 15, [(3-{[5-Fluoro-4-(4-fluoro-1-benzofuran-7-yl)pyrimidin-2-yl]amino}-5-methylbenzyl)-(methyl)oxido-λ^6-sulfanylidene]cyanamide] | 8.80 | 522 | – | – | 7.17 | – | 7.20 | 6.96 | 6.92 | 6.94 | – | – |

The remaining compounds from weak to strong by pIC50 (CDK9/CycT1), led by results:

| pIC50 (CDK9/CycT1) | Selectivity high ATP CDK9 over high ATP CDK2: IC50 (high ATP CDK2)/IC50 (high ATP CDK9) (CDK9/CycT1) | pIC50 (HeLa-MaTu-ADR cells; Homo sapiens, 96 h) | pIC50 (NCI-H460 cells; Homo sapiens, NCI-H460, 96 h) | pIC50 (Caco-2 cells) | pIC50 (B16F10 cells; Mus musculus, B16-F10, 96 h) | pIC50 (A2780 cells) | pIC50 (HeLa-MaTu-ADR cells) | pIC50 (NCI-H460 cells) | pIC50 (B16F10 cells) | pIC50 (Caco-2 cells; Homo sapiens, Caco-2, 96 h) | pIC50 (A2780 cells; Homo sapiens, A2780, 96 h) | Compound |
| --- | --- | --- | --- | --- | --- | --- | --- | --- | --- | --- | --- | --- |
| 8.47 | 656 | – | – | 7.27 | – | 7.72 | 7.38 | 6.97 | 7.28 | – | – | CS(=O)(Cc1cc(F)cc(Nc2ncc(F)c(-c3ccc(F)c4ccoc34)n2)c1)=NC#N (single isomer, unassigned) [Example 9, [(3-Fluoro-5-{[5-fluoro-4-(4-fluoro-1-benzofuran-7-yl)pyrimidin-2-yl]amino}benzyl)(methyl)-oxido-λ^6-sulfanylidene]cyanamide] |
| 8.49 | 313 | – | – | 6.95 | – | 7.42 | 7.02 | 6.50 | 6.73 | – | – | CS(=N)(=O)Cc1cccc(Nc2ncc(F)c(-c3ccc(F)c4ccoc34)n2)c1 (single isomer, unassigned) [Example 6, 5-Fluoro-4-(4-fluoro-1-benzofuran-7-yl)-N-{3-[(S-methylsulfonimidoyl)-methyl]-phenyl}-pyrimidin-2-amine] |
